Data on 2 compounds can be found in article PMC6332026, “Synthesis and Pharmacochemistry of New Pleiotropic Pyrrolyl Derivatives” (Molecules, 2015).

This assay deals with T1, interleukin-6 (IL-6) (Mus musculus, UniProt P08505).
T1 construct: purchased Cayman Item No. 583371
T1 sequence (P08505 25-211): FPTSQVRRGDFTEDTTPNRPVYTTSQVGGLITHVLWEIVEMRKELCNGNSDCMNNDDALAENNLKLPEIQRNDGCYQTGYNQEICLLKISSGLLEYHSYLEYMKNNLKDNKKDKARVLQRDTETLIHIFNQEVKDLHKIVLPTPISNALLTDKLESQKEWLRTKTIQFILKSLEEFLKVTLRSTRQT
Description: Inhibition of interleukin-6 (immunometric double antibody sandwich EIA). Format: biochemical. To be noted: compound 10 μM. Here is the method: The assay used for the inhibition of IL-6 is based on an immunometric double antibody method (sandwich technique). […] Both compounds gave satisfactory biological responses, both in high and in low concentrations of IL-6 (Table 8).
The method was based on an immunometric double antibody sandwich technique. Each well of the microwell plate was coated with a specific for mouse IL-6 rat monoclonal antibody. Tested compounds at 10 μΜ and standards were incubated in the wells, and after rinsing, a second monoclonal antibody was added, which was conjugated with biotin and detected the captured IL-6. The recognition of double antibody sandwiches was done with HRP-conjugated streptavidin. The concentration of IL-6 was determined by measuring the enzymatic activity of HRP using the chromogenic substrate TMB (3,3′,5,5′-tetramethylbenzidine). The absorbance of the reaction product was measured at 450 nm, and the intensity of the color was directly proportional to the amount of bound HRP-streptavidin conjugate, which was proportional to the concentration of IL-6.

Turning to `O=C(c1cccs1)c1c[nH]cc1-c1cccc(Oc2ccccc2)c1` [Compound 2i, [4-(3-Phenoxyphenyl)-1H-pyrrol-3-yl](thien-2-yl)methanone], the inhibition at 10 µM (IL-6 187.5 pg/mL) was 99%, the inhibition at 10 µM (IL-6 375.0 pg/mL) was 99%, at 10 µM the inhibition (IL-6 750.0 pg/mL) was 98% and 10 µM produced 99% inhibition (IL-6 1500 pg/mL).

In turn, `O=C(c1ccc(Cl)cc1)c1c[nH]cc1-c1cccc2ccccc12` [Compound 2v, (4-Chlorophenyl)[4-(naphth-1-yl)-1H-pyrrol-3-yl]methanone] displayed an inhibition at 10 µM (IL-6 375.0 pg/mL) of 99%, an inhibition at 10 µM (IL-6 750.0 pg/mL) of 99% and an inhibition at 10 µM (IL-6 1500 pg/mL) of 100%.
